Data published in paper PMC6979384, “Characterization of the plant homeodomain (PHD) reader family for their histone tail interactions” (Epigenetics & Chromatin, 2020).

Legend:
Assay in all cases: Histone peptide microarray
Type in all cases: binding, human
[1] = tested on: AIRE (PP)
Method in brief: (§1)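 Mean ± SD of 4 replicate array intensities; GST-PHD finger at 0.5 μM against 293 PTM-bearing histone peptides.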

[2] = tested on: BAZ2B
Method in brief: as §1

[3] = tested on: BPTF (PB)
Method in brief: as §1

[4] = tested on: CHD4 (PPCC)
Method in brief: as §1

[5] = tested on: CHD5 (PCC)
Method in brief: as §1

[6] = tested on: CHD5 (PPCC)
Method in brief: as §1

[7] = tested on: DIDO1
Method in brief: as §1

[8] = tested on: DPF2 (PPC2W2)
Method in brief: as §1

[9] = tested on: ING1
Method in brief: as §1

[10] = tested on: ING2
Method in brief: as §1

[11] = tested on: ING3
Method in brief: as §1

[12] = tested on: ING4
Method in brief: as §1

[13] = tested on: ING5
Method in brief: as §1

[14] = tested on: KDM4C (TTP)
Method in brief: as §1

[15] = tested on: KDM5A (1)
Method in brief: as §1

[16] = tested on: KDM5A (3)
Method in brief: as §1

[17] = tested on: KDM5B (1)
Method in brief: as §1

[18] = tested on: KDM5B (3)
Method in brief: as §1

[19] = tested on: KDM7A
Method in brief: as §1

[20] = tested on: MLL5
Method in brief: as §1

[21] = tested on: MORC3 (CW)
Method in brief: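 Readout is array binding signal, reported as the mean and standard deviation over four replicates. Each purified GST-fused PHD domain was incubated at 0.5 μM with a library of 293 modified histone peptides.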

[22] = tested on: PHF13
Method in brief: as §1

[23] = tested on: PHF21A
Method in brief: as §1

[24] = tested on: PHF23
Method in brief: as §1

[25] = tested on: PHF2
Method in brief: as §1

[26] = tested on: PHF8
Method in brief: as §1

[27] = tested on: PHRF1 (RP)
Method in brief: as §1

[28] = tested on: RAG2
Method in brief: as §1

[29] = tested on: SP140L
Method in brief: as §1

[30] = tested on: TAF3
Method in brief: as §1

[31] = tested on: TRIM66 (PB)
Method in brief: as §1

[32] = sheet "Array Heatmap", GST-tagged reader, histone peptide array, total n = 4
[33] = histone peptide array, GST-tagged reader, arrays performed twice, n of 4
[34] = histone peptide array, GST-tagged reader, PB = PHD + Bromodomain, arrays performed twice, n of 4
[35] = histone peptide array, GST-tagged reader, PPCC = Dual PHD + Dual Chromodomain, arrays performed twice, n of 4

H3 (1-25): H3 1-25
Array Heatmap signal, AIRE (PP) [1, 32]: 0.5222 | Array Heatmap signal, BAZ2B [2, 32]: 0.4554 | Array Heatmap signal, BPTF (PB) [3, 32]: 0.3452 | Array Heatmap signal, CHD4 (PPCC) [4, 32]: 0.5563 | Array Heatmap signal, CHD5 (PCC) [5, 32]: 0.8391 | Array Heatmap signal, CHD5 (PPCC) [6, 32]: 0.5322 | Array Heatmap signal, DIDO1 [7, 32]: 0.658 | Array Heatmap signal, DPF2 (PPC2W2) [8, 32]: 0.7357 | Array Heatmap signal, ING1 [9, 32]: 0.5226 | Array Heatmap signal, ING2 [10, 32]: 0.6234 | Array Heatmap signal, ING3 [11, 32]: 0.4651 | Array Heatmap signal, ING4 [12, 32]: 0.4369 | Array Heatmap signal, ING5 [13, 32]: 0.3412 | Array Heatmap signal, KDM4C (TTP) [14, 32]: 0.4415 | Array Heatmap signal, KDM5A (1) [15, 32]: 0.4713 | Array Heatmap signal, KDM5A (3) [16, 32]: 0.6477 | Array Heatmap signal, KDM5B (1) [17, 32]: 0.6949 | Array Heatmap signal, KDM5B (3) [18, 32]: 0.5183 | Array Heatmap signal, KDM7A [19, 32]: 0.3768 | Array Heatmap signal, MLL5 [20, 32]: 0.57 | Array Heatmap signal, MORC3 (CW) [21, 32]: 0.6357 | Array Heatmap signal, PHF13 [22, 32]: 0.6012 | Array Heatmap signal, PHF21A [23, 32]: 0.4429 | Array Heatmap signal, PHF23 [24, 32]: 0.5406 | Array Heatmap signal, PHF2 [25, 32]: 0.5334 | Array Heatmap signal, PHF8 [26, 32]: 0.366 | Array Heatmap signal, PHRF1 (RP) [27, 32]: 0.8507 | Array Heatmap signal, RAG2 [28, 32]: 0.2539 | Array Heatmap signal, SP140L [29, 32]: 0.342 | Array Heatmap signal, TAF3 [30, 32]: 0.2692 | Array Heatmap signal, TRIM66 (PB) [31, 32]: 0.9221

H3 (1-32): H3 1-32
Array Heatmap signal, AIRE (PP) ([1]; sheet "Array Heatmap", GST-tagged AIRE (PP), arrays performed twice, total replicate number n = 4): 0.4331 | Array Heatmap signal, BAZ2B ([2]; sheet "Array Heatmap", GST-tagged BAZ2B, arrays performed twice, total replicate number n = 4): 0.4644 | Array Heatmap signal, BPTF (PB) ([3]; sheet "Array Heatmap", GST-tagged BPTF (PB), arrays performed twice, total replicate number n = 4): 0.3386 | Array Heatmap signal, CHD4 (PPCC) ([4]; sheet "Array Heatmap", GST-tagged CHD4 (PPCC), arrays performed twice, total replicate number n = 4): 0.5584 | Array Heatmap signal, CHD5 (PCC) ([5]; sheet "Array Heatmap", GST-tagged CHD5 (PCC), arrays performed twice, total replicate number n = 4): 0.752 | Array Heatmap signal, CHD5 (PPCC) ([6]; sheet "Array Heatmap", GST-tagged CHD5 (PPCC), arrays performed twice, total replicate number n = 4): 0.5395 | Array Heatmap signal, DIDO1 ([7]; sheet "Array Heatmap", GST-tagged DIDO1, arrays performed twice, total replicate number n = 4): 0.6427 | Array Heatmap signal, DPF2 (PPC2W2) ([8]; sheet "Array Heatmap", GST-tagged DPF2 (PPC2W2), arrays performed twice, total replicate number n = 4): 0.6414 | Array Heatmap signal, ING1 ([9]; sheet "Array Heatmap", GST-tagged ING1, arrays performed twice, total replicate number n = 4): 0.5053 | Array Heatmap signal, ING2 ([10]; sheet "Array Heatmap", GST-tagged ING2, arrays performed twice, total replicate number n = 4): 0.5998 | Array Heatmap signal, ING3 ([11]; sheet "Array Heatmap", GST-tagged ING3, arrays performed twice, total replicate number n = 4): 0.4534 | Array Heatmap signal, ING4 ([12]; sheet "Array Heatmap", GST-tagged ING4, arrays performed twice, total replicate number n = 4): 0.4381 | Array Heatmap signal, ING5 ([13]; sheet "Array Heatmap", GST-tagged ING5, arrays performed twice, total replicate number n = 4): 0.344 | Array Heatmap signal, KDM4C (TTP) ([14]; sheet "Array Heatmap", GST-tagged KDM4C (TTP), arrays performed twice, total replicate number n = 4): 0.4465 | Array Heatmap signal, KDM5A (1) ([15]; sheet "Array Heatmap", GST-tagged KDM5A (1), arrays performed twice, total replicate number n = 4): 0.4672 | Array Heatmap signal, KDM5A (3) ([16]; sheet "Array Heatmap", GST-tagged KDM5A (3), arrays performed twice, total replicate number n = 4): 0.5232 | Array Heatmap signal, KDM5B (1) ([17]; sheet "Array Heatmap", GST-tagged KDM5B (1), arrays performed twice, total replicate number n = 4): 0.6889 | Array Heatmap signal, KDM5B (3) ([18]; sheet "Array Heatmap", GST-tagged KDM5B (3), arrays performed twice, total replicate number n = 4): 0.4939 | Array Heatmap signal, KDM7A ([19]; sheet "Array Heatmap", GST-tagged KDM7A, arrays performed twice, total replicate number n = 4): 0.308 | Array Heatmap signal, MLL5 ([20]; sheet "Array Heatmap", GST-tagged MLL5, arrays performed twice, total replicate number n = 4): 0.5257 | Array Heatmap signal, MORC3 (CW) ([21]; sheet "Array Heatmap", GST-tagged MORC3 (CW), arrays performed twice, total replicate number n = 4): 0.4518 | Array Heatmap signal, PHF13 ([22]; sheet "Array Heatmap", GST-tagged PHF13, arrays performed twice, total replicate number n = 4): 0.5781 | Array Heatmap signal, PHF21A ([23]; sheet "Array Heatmap", GST-tagged PHF21A, arrays performed twice, total replicate number n = 4): 0.4399 | Array Heatmap signal, PHF23 ([24]; sheet "Array Heatmap", GST-tagged PHF23, arrays performed twice, total replicate number n = 4): 0.5255 | Array Heatmap signal, PHF2 ([25]; sheet "Array Heatmap", GST-tagged PHF2, arrays performed twice, total replicate number n = 4): 0.514 | Array Heatmap signal, PHF8 ([26]; sheet "Array Heatmap", GST-tagged PHF8, arrays performed twice, total replicate number n = 4): 0.3413 | Array Heatmap signal, PHRF1 (RP) ([27]; sheet "Array Heatmap", GST-tagged PHRF1 (RP), arrays performed twice, total replicate number n = 4): 0.6359 | Array Heatmap signal, RAG2 ([28]; sheet "Array Heatmap", GST-tagged RAG2, arrays performed twice, total replicate number n = 4): 0.2569 | Array Heatmap signal, SP140L ([29]; sheet "Array Heatmap", GST-tagged SP140L, arrays performed twice, total replicate number n = 4): 0.3492 | Array Heatmap signal, TAF3 ([30]; sheet "Array Heatmap", GST-tagged TAF3, arrays performed twice, total replicate number n = 4): 0.2681 | Array Heatmap signal, TRIM66 (PB) ([31]; sheet "Array Heatmap", GST-tagged TRIM66 (PB), arrays performed twice, total replicate number n = 4): 0.7057

H3 (15-34)K27ac: H3 15-34
Array Heatmap signal, AIRE (PP) [1, 33]: 0.5038 | Array Heatmap signal, BAZ2B [2, 33]: 0.4845 | Array Heatmap signal, BPTF (PB) [3, 34]: 0.3592 | Array Heatmap signal, CHD4 (PPCC) [4, 35]: 0.5674 | Array Heatmap signal, CHD5 (PCC) ([5]; histone peptide array, GST-tagged reader, PCC = PHD + Dual Chromodomain, arrays performed twice, n of 4): 0.7622 | Array Heatmap signal, CHD5 (PPCC) [6, 35]: 0.5983 | Array Heatmap signal, DIDO1 [7, 33]: 0.6571 | Array Heatmap signal, DPF2 (PPC2W2) ([8]; histone peptide array, GST-tagged reader, PPC2W2 = Dual PHD + C2W2-type Zn-finger, arrays performed twice, n of 4): 0.642 | Array Heatmap signal, ING1 [9, 33]: 0.5528 | Array Heatmap signal, ING2 [10, 33]: 0.5993 | Array Heatmap signal, ING3 [11, 33]: 0.5008 | Array Heatmap signal, ING4 [12, 33]: 0.4806 | Array Heatmap signal, ING5 [13, 33]: 0.3933 | Array Heatmap signal, KDM4C (TTP) ([14]; histone peptide array, GST-tagged reader, TTP = Tandem Tudor domain + PHD, arrays performed twice, n of 4): 0.5365 | Array Heatmap signal, KDM5A (1) [15, 33]: 0.5009 | Array Heatmap signal, KDM5A (3) [16, 33]: 0.4223 | Array Heatmap signal, KDM5B (1) [17, 33]: 0.6588 | Array Heatmap signal, KDM5B (3) [18, 33]: 0.4788 | Array Heatmap signal, KDM7A [19, 33]: 0.3922 | Array Heatmap signal, MLL5 [20, 33]: 0.5399 | Array Heatmap signal, MORC3 (CW) ([21]; histone peptide array, GST-tagged reader, CW = CW-type Zn-finger, arrays performed twice, n of 4): 0.3756 | Array Heatmap signal, PHF13 [22, 33]: 0.6352 | Array Heatmap signal, PHF21A [23, 33]: 0.4777 | Array Heatmap signal, PHF23 [24, 33]: 0.5579 | Array Heatmap signal, PHF2 [25, 33]: 0.4814 | Array Heatmap signal, PHF8 [26, 33]: 0.3727 | Array Heatmap signal, PHRF1 (RP) [27, 33]: 0.4538 | Array Heatmap signal, RAG2 [28, 33]: 0.2665 | Array Heatmap signal, SP140L [29, 33]: 0.3795 | Array Heatmap signal, TAF3 [30, 33]: 0.268 | Array Heatmap signal, TRIM66 (PB) [31, 34]: 0.5567
